Laboratory results published in patent US3986862A, “Emulsifiable liquid concentrates containing 4-amino-6-t-butyl-3-(methylthio)-1,2,4-triazin-5-one and 2-chloro-N-(2,6-diethylphenyl)-N-methoxymethylacetamide” (E. I. Du Pont de Nemours and Company, priority 1974, dated 1976).

Type: physicochemical
Experimental: The unexpected solvent synergism between alachlor, metribuzin and chlorobenzene is illustrated in the Table below. […] When metribuzin is the only material in chlorobenzene only 4% can be held in solution at -6° C. This is equivalent to about 0.35 lbs. metrubuzin/gallon. Solutions more concentrated than that could not be stored at the commercially important warehousing conditions at or near the conventional freezing temperatures (32° F. or 0° C.). […] These concentrations represent 0.8 lbs. of metribuzin and 3.2 lbs. of alachlor per gallon.
SOLUBILITY OF METRIBUZIN AT LOW TEMPERATURES IN
LASSO* AND/OR CHLOROBENZENE

[1] = metribuzin the only material in chlorobenzene, at -6° C.

Structure (SMILES): CSc1nnc(C(C)(C)C)c(=O)n1N [Metribuzin, 4-amino-6-t-butyl-3-(methylthio)-1,2,4-triazin-5-one]
- Incipient Crystallization Temperature (4% metribuzin, 0% alachlor, solvent chlorobenzene): -6 °C
- amount of metribuzin that can be held in solution [1]: 4%
- amount of metribuzin that can be held in solution, equivalent [1]: about 0.35 lbs. metrubuzin/gallon
